{"source": "PubChem BioAssay (NCI)", "system": "P388/ADR leukemia", "experiment": "NCI tumour cell line growth inhibition, 48 h", "note": "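The compound was tested at five concentrations on cells cultured in 96-well plates, with a 48-hour exposure period. TGI is the concentration that stops growth completely.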"}
{"smiles": "O=c1cnn(C2OC(CO)C(O)C2O)c(=S)[nH]1", "note": "(stereo unspecified)", "values": [{"measurement": "TGI", "value": 6.27, "unit": "µM"}]}
